Test results from article PMC4501006, “Preliminary Characterization and In Vivo Studies of Structurally Identical ^18F- and ^125I-Labeled Benzyloxybenzenes for PET/SPECT Imaging of β-Amyloid Plaques” (Scientific Reports, 2015).
“And” between values parts separate entries of the source, which are not always exact repeats. Equal values may be shown once. One block for each compound: values may come before it.

Experiments:
Aβ42 aggregates = Aβ42 aggregates (Homo sapiens, UniProt P05067); experiment: Competition binding assay using [125I]4 as radio-ligand; details: inhibition of [125I]4 binding to Aβ42 aggregates
Sequence of Aβ42 aggregates (P05067 672-713 limits assumed): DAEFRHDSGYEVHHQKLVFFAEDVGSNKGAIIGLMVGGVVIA
From the text: The actual binding affinities agreed well with values predicted by the CoMFA and CoMSIA models, with pKi values deviating by less than 0.5 log unit. This satisfactory result strongly validated the reliability of the established 3D-QSAR models. This ability to accurately predict the binding activities of new benzyloxybenzene derivatives will be of great help for future efforts to design new potent Aβ imaging agents.

[1] = In vivo biodistribution in normal ICR mice; details: i.v.
Protocol: Histograms of brain and intestine uptake were presented in Fig. 6 for comparison, while detailed data concerning the in vivo biodistribution in normal ICR mice were collected in Table S3 in Supplementary information. […] [^125I]7a and [^125I]12a were rapidly cleared from the normal brain, with only small amounts of radioactivity remaining at 60 min post-injection (0.55% ID/g for [^125I]7a and 0.37% ID/g for [^125I]12a). […] In addition, no significant deiodination was observed (less than 0.5% ID in the thyroid at 60 min).
As the specific activity of ^18F-labeled ligands (about 60 GBq/μmol) was slightly lower than that of corresponding no-carrier-added ^125I-labeled ligands (81 GBq/μmol), the impact of specific activity on pharmacokinetics was studied. In vivo biodistribution of radioactivity after injection of carrier-added [^125I]7a with equal specific activity to corresponding [^18F]7a (60 GBq/μmol) was conducted in normal ICR mice through the same procedure.
A structural model of an Aβ fiber (PDB ID: 2LMO) derived from solid state NMR was downloaded from the RCSB Protein Data Bank (www.rcsb.org/pdb). Geometric optimization was performed using Gaussian 09 at the B3LYP/6–31 G and 3-21G levels in the water phase. Molecular docking was performed using AutoDock4.0, and the docking results were graphed with VMD 1.9.1 software. SYBYL-X 1.1 software was used to predict the binding affinities with previously constructed 3D-QSAR models. All reagents for chemical synthesis were used as purchased without further purification. [^125I]NaI was purchased from PerkinElmer and ^18F^– was kindly provided by the Chinese PLA General Hospital. ^1H and ^13C NMR spectra were recorded on a Bruker Avance III NMR spectrometer (400 MHz for ^1H; 101 MHz for ^13C) in CDCl3 or DMSO-d6 solutions at room temperature. Mass spectra were acquired with a GCT CA127 Micronass UK instrument. X-ray crystallographic data of compound 12a were collected on a Bruker Smart APEX II diffractometer (Bruker Co., Germany) and deposited at the Cambridge Crystallographic Data Centre as supplementary publication (no. CCDC 1063679). HPLC analysis was performed on a Shimadzu SCL-20 AVP equipped with a Bioscan Flow Count 3200 NaI/PMT γ-radiation scintillation detector and a SPD-20A UV detector, λ = 254 nm. A Venusil MP C18 reverse phase column (Agela Technologies, 5 μm, 4.6 × 250 mm) was used for separations and purity determinations with a binary gradient system (acetonitrile: water = 80%: 20%) at a 1.0 mL/min flow rate. Fluorescent observation was performed on the Axio Observer Z1 inverted fluorescence microscope (Zeiss, Germany) equipped with a DAPI filter set (excitation, 405 nm). Post-mortem brain sections from an autopsy-confirmed AD subject and a control subject were acquired from the Chinese Brain Bank. Transgenic mice (APPswe/PSEN1, male) and wild-type mice (C57BL6, male) were purchased from the Institute of Laboratory Animal Science, Chinese Academy of Medical Sciences. Normal ICR mice (20–22 g, male) were used for in vivo biodistribution, dynamic PET/CT and SPECT/CT scans, and biostability experiments. All experiments on mice were performed in accordance with the guidelines approved by the animal care committee of Beijing Normal University and Xiamen University.

[2] = Partition coefficient determination (log D); type: physicochemical
Protocol: An ideal Aβ imaging probe would combine a high binding affinity to Aβ plaques and excellent pharmacokinetics with high initial brain uptake and rapid washout from normal brain regions. Thus, the partition coefficients of these four radiolabeled ligands were determined to estimate their ability to penetrate the BBB.

[3] = In vivo metabolism (biostability), HPLC analysis of organ samples; details: ICR mice, i.v.
Protocol: All four radioactive ligands degraded to two corresponding polar radioactive products with shorter retention times. […] The good in vivo biostability of these compounds enhances their potential for SPECT mapping of the brain. […] In the plasma, all four ligands were rapidly converted to polar metabolites, leaving only approximately 10% of the parent tracers at 60 min. […] In contrast, the breakdown of [^125I]7a and [^125I]12a was so rapid that almost negligible amounts of parent tracers remained at 30 min (8.8% and 6.3%, respectively). The polar and hydrophilic metabolites metabolized by the liver could be absorbed by the intestine and excreted through the urine, in accordance with the biodistribution results. The rapid metabolism in the liver may be another reason for the faster clearance of these compounds from the normal brain. For structurally identical molecules labeled with radioactive isotopes at different positions, the in vivo metabolic pathways were expected to be the same. However, as only radioactive products can be detected with PET/SPECT scanners, different pharmacokinetics of the radioactive components could lead to different imaging results. […] The dual radiolabeled identical benzyloxybenzene derivatives in this study were expected to undergo the same metabolic reactions, generating different radioactive metabolites. Differences in the biochemical characteristics of the radiometabolites including absorption, distribution, metabolism and excretion are responsible for the discrepancy in the pharmacokinetics of the radioactivity.

Aβ plaques = Aβ plaques (Homo sapiens, UniProt P05067); experiment: In vitro autoradiography on AD human brain sections; type: binding
Sequence of Aβ plaques (P05067 672-711 limits assumed): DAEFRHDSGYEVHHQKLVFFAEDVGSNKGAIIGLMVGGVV
From the text: Figure 5 In vitro autoradiography of [^125I]7a (a–d), [^18F]7a (e–h), [^125I]12a (i–l) and [^18F]12a (m–p).

Ki (Aβ42 aggregates): 0.0195 µM
SMILES: FCCOc1ccc(OCc2ccc(I)cc2)cc1 [7a]

brain2 min/brain60 min ratio [1]: 14.2
Biodistribution of radioactivity, blood ([1]; 2 min): 4.96 ± 0.35 % injected dose per gram
Biodistribution of radioactivity, heart ([1]; 2 min): 6.61 ± 1.42 % injected dose per gram
Biodistribution of radioactivity, intestine ([1]; 2 min): 4.81 ± 0.97 % injected dose per organ
Biodistribution of radioactivity, kidney ([1]; 2 min): 9.16 ± 0.59 % injected dose per gram
Biodistribution of radioactivity, liver ([1]; 2 min): 18.12 ± 2.34 % injected dose per gram
Biodistribution of radioactivity, lung ([1]; 2 min): 10.30 ± 2.16 % injected dose per gram
Biodistribution of radioactivity, muscle ([1]; 2 min): 3.47 ± 0.45 % injected dose per gram
Biodistribution of radioactivity, pancreas ([1]; 2 min): 6.45 ± 0.56 % injected dose per gram
Biodistribution of radioactivity, spleen ([1]; 2 min): 2.85 ± 0.30 % injected dose per gram
Biodistribution of radioactivity, stomach ([1]; 2 min): 1.30 ± 0.14 % injected dose per organ
Biodistribution of radioactivity, thyroid ([1]; 2 min): 0.13 ± 0.02 % injected dose per organ
Biodistribution of radioactivity, brain ([1]; 2 min, listed as [125I]12a): 5.27 ± 0.98 % injected dose per gram
Biodistribution of radioactivity, blood ([1]; 10 min): 3.88 ± 0.79 % injected dose per gram
Biodistribution of radioactivity, brain ([1]; 10 min): 2.28 ± 0.27 % injected dose per gram
Biodistribution of radioactivity, heart ([1]; 10 min): 2.12 ± 0.16 % injected dose per gram
Biodistribution of radioactivity, intestine ([1]; 10 min): 10.68 ± 2.60 % injected dose per organ
Biodistribution of radioactivity, kidney ([1]; 10 min): 7.61 ± 1.23 % injected dose per gram
Biodistribution of radioactivity, liver ([1]; 10 min): 12.07 ± 1.06 % injected dose per gram
Biodistribution of radioactivity, lung ([1]; 10 min): 4.16 ± 0.26 % injected dose per gram
Biodistribution of radioactivity, muscle ([1]; 10 min): 1.31 ± 0.12 % injected dose per gram
Biodistribution of radioactivity, pancreas ([1]; 10 min): 2.44 ± 0.28 % injected dose per gram
Biodistribution of radioactivity, spleen ([1]; 10 min): 1.29 ± 0.06 % injected dose per gram
Biodistribution of radioactivity, stomach ([1]; 10 min): 1.34 ± 0.16 % injected dose per organ
Biodistribution of radioactivity, thyroid ([1]; 10 min): 0.13 ± 0.01 % injected dose per organ
Biodistribution of radioactivity, blood ([1]; 30 min): 3.89 ± 0.53 % injected dose per gram
Biodistribution of radioactivity, brain ([1]; 30 min): 0.81 ± 0.06 % injected dose per gram
Biodistribution of radioactivity, heart ([1]; 30 min): 1.67 ± 0.09 % injected dose per gram
Biodistribution of radioactivity, intestine ([1]; 30 min): 16.61 ± 3.88 % injected dose per organ
Biodistribution of radioactivity, kidney ([1]; 30 min): 7.44 ± 0.90 % injected dose per gram
Biodistribution of radioactivity, liver ([1]; 30 min): 8.68 ± 1.02 % injected dose per gram
Biodistribution of radioactivity, lung ([1]; 30 min): 3.56 ± 0.38 % injected dose per gram
Biodistribution of radioactivity, muscle ([1]; 30 min): 0.99 ± 0.17 % injected dose per gram
Biodistribution of radioactivity, pancreas ([1]; 30 min): 1.75 ± 0.10 % injected dose per gram
Biodistribution of radioactivity, spleen ([1]; 30 min): 1.03 ± 0.10 % injected dose per gram
Biodistribution of radioactivity, stomach ([1]; 30 min): 2.02 ± 0.49 % injected dose per organ
Biodistribution of radioactivity, thyroid ([1]; 30 min): 0.19 ± 0.04 % injected dose per organ
Biodistribution of radioactivity, blood ([1]; 60 min): 3.01 ± 1.07 % injected dose per gram
Biodistribution of radioactivity, brain ([1]; 60 min): 0.37 % injected dose per gram
Biodistribution of radioactivity, heart ([1]; 60 min): 1.17 ± 0.45 % injected dose per gram
Biodistribution of radioactivity, intestine ([1]; 60 min): 18.84 ± 8.75 % injected dose per organ
Biodistribution of radioactivity, kidney ([1]; 60 min): 6.09 ± 2.17 % injected dose per gram
Biodistribution of radioactivity, liver ([1]; 60 min): 4.64 ± 0.77 % injected dose per gram
Biodistribution of radioactivity, lung ([1]; 60 min): 3.11 ± 1.02 % injected dose per gram
Biodistribution of radioactivity, muscle ([1]; 60 min): 1.20 ± 0.26 % injected dose per gram
Biodistribution of radioactivity, pancreas ([1]; 60 min): 1.37 ± 0.41 % injected dose per gram
Biodistribution of radioactivity, spleen ([1]; 60 min): 0.84 ± 0.31 % injected dose per gram
Biodistribution of radioactivity, stomach ([1]; 60 min): 2.27 ± 0.40 % injected dose per organ
Biodistribution of radioactivity, thyroid ([1]; 60 min): 0.34 ± 0.10 % injected dose per organ
Biodistribution of radioactivity, brain ([1]; 60 min, listed as [125I]12a): 0.37 ± 0.06 % injected dose per gram
logD [2]: 3.62 ± 0.15
Percentage of Parent tracer, Brain ([3]; post-injection time 2 min): 92.1%
Percentage of Parent tracer, Feces ([3]; post-injection time 2 min): 0.0%
Percentage of Parent tracer, Liver ([3]; post-injection time 2 min): 49.1%
Percentage of Parent tracer, Plasma ([3]; post-injection time 2 min): 88.4%
Percentage of Parent tracer, Urine ([3]; post-injection time 2 min): 0.0%
Percentage of Parent tracer, Brain ([3]; post-injection time 10 min): 82.1%
Percentage of Parent tracer, Feces ([3]; post-injection time 10 min): 0.0%
Percentage of Parent tracer, Liver ([3]; post-injection time 10 min): 21.5%
Percentage of Parent tracer, Plasma ([3]; post-injection time 10 min): 29.6%
Percentage of Parent tracer, Urine ([3]; post-injection time 10 min): 0.0%
Percentage of Parent tracer, Brain ([3]; post-injection time 30 min): 78.3%
Percentage of Parent tracer, Feces ([3]; post-injection time 30 min): 0.0%
Percentage of Parent tracer, Liver ([3]; post-injection time 30 min): 6.3%
Percentage of Parent tracer, Plasma ([3]; post-injection time 30 min): 26.3%
Percentage of Parent tracer, Urine ([3]; post-injection time 30 min): 0.0%
Percentage of Parent tracer, Brain ([3]; post-injection time 60 min): 68.6%
Percentage of Parent tracer, Feces ([3]; post-injection time 60 min): 0.0%
Percentage of Parent tracer, Liver ([3]; post-injection time 60 min): 3.8%
Percentage of Parent tracer, Plasma ([3]; post-injection time 60 min): 4.68%
Percentage of Parent tracer, Urine ([3]; post-injection time 60 min): 0.0%
in vitro autoradiography, plaque labeling (Aβ plaques): specifically label Aβ deposits
SMILES: FCCOc1ccc(COc2ccc([125I])cc2)cc1 [[^125I]12a]
Biodistribution of radioactivity, brain ([1]; 2 min): > 5 % injected dose per gram and 5.27 % injected dose per gram

Ki (Aβ42 aggregates): 0.0239 µM
SMILES: FCCOc1ccc(COc2ccc(I)cc2)cc1 [12a]
